According to patent US20240398822A1, “METHODS AND COMPOSITIONS FOR TREATING AND MANAGING ALZHEIMER'S DISEASE” (Pharmatrophix, Inc., priority 2021, published 2024):

Experiments:
[1] = Stability study of capsules filled with 200 mg in blister strips; type: physicochemical; conditions: 200 mg (free base weight) capsules in PVC-PE-PVdC/Alu, ambient 15-25° C./20-60% RH
[2] = system: tau; assay: Phase IIa CSF total tau; type: in vivo, human
Description: (§1) CSF samples were obtained at screening Visit and final Visit via lumbar puncture to determine levels of tau, p-tau, Aβ40, Aβ42 and AChE activity as an initial set of CSF biomarkers. Aliquots of CSF were made available for emerging CSF biomarker methods such as measurement of additional biomarkers including neurofilaments light chain, neurogranin, SNAP-25, synaptotagmin, YKL-40, TREM2, tau oligomers and for measurement of drug level in selected patients based on the time period between last dose of drug and CSF sampling (FIG. 25 and FIG. 58).
(§2) Baseline CSF samples are obtained prior to administration via lumbar puncture. These samples are used to determine levels of tau, p-tau, Aβ40, Aβ42, AChE, neurofilament light chain, SNAP-25, synaptotagmin-1, neurogranin, sTREM, and YKL-40. Aliquots of CSF are also made available for emerging CSF biomarker methods such as measurement of tau oligomers and for measurement of drug level in selected patients based on time period between last dose of the salt of Formula (II) and CSF sampling. […] Many of these biomarkers can also be measured in blood or plasma. The change in values over the time period from pre-treatment to post-treatment are of particular importance. […] Absolute levels at single time points of neurofilament light chain, SNAP-25, synaptotagmin-1, neurogranin, sTREM, and YKL-40 in CSF or blood or plasma are of less value given differences in assay techniques and wide variation in absolute levels within normal subjects and within and across AD subjects. In contrast, absolute levels of Aβ42 and 40 at baseline are useful biomarkers indicating the presence of amyloid pathology as low levels of Aβ42 and 40 at a given time point are consistent with amyloid pathology.

[3] = system: sTREM2; assay: Phase IIa CSF glial biomarker sTREM2; type: in vivo, human
Description: as §1
Baseline CSF samples are obtained prior to administration via lumbar puncture. These samples are used to determine levels of tau, p-tau, Aβ40, Aβ42, AChE, neurofilament light chain, SNAP-25, synaptotagmin-1, neurogranin, sTREM, and YKL-40. Aliquots of CSF are also made available for emerging CSF biomarker methods such as measurement of tau oligomers and for measurement of drug level in selected patients based on time period between last dose of the salt of Formula (II) and CSF sampling. […] Many of these biomarkers can also be measured in blood or plasma. The change in values over the time period from pre-treatment to post-treatment are of particular importance. […]

[4] = system: YKL-40; assay: Phase IIa CSF glial biomarker YKL-40; type: in vivo, human
Description: as §1, §2

[5] = system: patients with mild to moderate Alzheimer's disease; assay: Phase IIa brain glucose metabolism (18F-FDG-PET); type: in vivo, human; conditions: for FDG-PET voxel (MCS) analysis, dose comparison: 400 mg versus 200 mg versus placebo
Protocol: The specific ^18F FDG-PET scan for early detection of AD is conducted at the first and final visits. Quantitative and qualitative estimates of the cerebral glucose rate may be done by using FDG-PET as evident metabolic reduction is already present in patients at early stages of Alzheimer's disease. ^18F FDG-PET scanning is an imaging biomarker for synaptic function. Analyses include anatomical, statistical or voxel-based regions of interest.
FDG-PET using statistical ROI measures derived from ADNI as described in the Chen et al. paper.
Areas showing less decline are highlighted in yellow. It is notable that these areas are relevant to areas that degeneration in AD. […] This method makes possible analysis of FDG-PET signal in a common three-dimensional sampling space with the MRI analysis for each subject thereby enhancing accuracy of FDG-PET analysis and allowing the combination of the two modalities for further analyses and the assessment of the spatial relationship between structural and functional degeneration over time. […] For this analysis, the drug treatment group contains subjects treated with either 200 or 400 mg doses.
FIGS. 56A-56C show FDG PET using group x time interaction patterns. In FIGS. 56A-56C, contrast estimate plots show the magnitude and direction of the interaction effects observed in the flexible factorial GLM.
Therefore, if the actual observed ratio of t-values is close to equivalent in the input map at a given p and k threshold, the MCS ratio and p-value will tend to support the null hypothesis of no drug effect.

[6] = system: subjects in SAD and MAD studies; assay: Phase 1 SAD/MAD safety; type: in vivo
Description: The phase 1 study was placebo controlled and double blinded and included 52 subjects in SAD studies and 20 subjects in MAD studies.

[7] = Estimating human brain exposure to drug; type: in vivo; conditions: oral dosing at 200 mg bid and 400 mg bid
Protocol: Key inclusion criteria for the 2a trial include a diagnosis of mild-moderate AD by McKhann criteria and a CSF measure of Ab 42/40 ratio under 0.089 OR a Ab 42 level <550 ng/L (FIG. 28). These criteria are discussed in Schindler et al. 2018.

[8] = annual percent change (APC), 6-month trial period

Compound: CC[C@H](C)[C@H](N)C(=O)NCCN1CCOCC1 [LM11A-31-BHS, Tris[(2S,3S)-2-amino-3-methyl-N-(2-morpholinoethyl)pentanamide] tetra(monohydrogensulfate), monosulfate]
- drug stability in capsules [1]: good drug stability
- CSF total tau, drug dose analysis ([2]; 200 mg bid or 400 mg bid versus placebo): trends for lowering of total tau reduction, especially at the 400 mg dose
- drug effect in slowing or inhibiting the CSF tau increase, younger (<72 years) versus older (>=72 years) [2, 8]: greater than that found in the older group
- effect compared to placebo in decreasing the elevation of CSF tau ([2]; combined drug group, 6 month treatment period, p=0.06): near-significant effect
- increase of CSF tau levels in the drug group ([2]; combined drug group, 6 months, p=0.2 (placebo increase p=0.003)): no longer detected at a significant level
- CSF sTREM2, drug dose analysis ([3]; 200 and 400 mg doses): nominal reduction at the 200 and 400 mg doses
- CSF sTREM2, drug effect ([3]; combined drug group, 6-month period): no drug effect was detected
- CSF YKL40 significant increase seen with placebo, drug dose analysis ([4]; 200 and 400 mg doses): no longer present at the 200 and 400 mg doses
- drug effect in slowing or inhibiting the pathological glial response (YKL-40), younger (<72 years) versus older (>=72 years) [4, 8]: greater than that found in the older group
- CSF YKL-40 increase in the drug group ([4]; combined drug group, difference between placebo and drug groups p=0.03): This increase was not detected in the drug group
- FDG-PET voxel (MCS) analysis, dose comparison [5]: 400 mg effect is significant and significantly greater than the 200 mg effect
- FDG-PET voxel (MCS) analysis, dose comparison ([5]; listed as LM11A-31): The effect at the 400 mg dose is higher than that at the 200 mg dose
- FDG-PET statistical ROI decline, drug versus placebo ([5]; combined drug group, 6 month period): trend to less decline
- cerebral glucose rate compared to placebo or no treatment ([5]; daily treatment): reduction in the extent of ongoing decrease in cerebral glucose rate
- FDG-PET loss of SUVR signal, dose analysis ([5]; flexible factorial GLM, p<0.05 and cluster size >100): significant effect at both the 200 and 400 mg doses in slowing loss of SUVR signal
- FDG-PET sROI, dose comparison ([5]; not statistically significant): greater trend is observed at 400 compared to the 200 mg dose
- deaths, SAEs, severe TEAEs, discontinuations because of an AE ([6]; in vivo): no deaths, SAEs, severe TEAEs, and no subjects were discontinued because of an AE
- intensity of TEAEs ([6]; in vivo): All TEAEs were mild
- laboratory results, physical examination, vital signs, ECG, C-SSRS ([6]; in vivo): No clinically significant laboratory results, physical examination findings, vital signs, ECG findings, or positive scores
- subjects who experienced TEAEs ([6]; multiple doses): 7 of 16
- total TEAEs ([6]; multiple doses): 8
- TEAEs considered unrelated to study drug ([6]; multiple doses, remaining 2 possibly (flatulence) or remotely (nocturia) related): 6
- subjects who experienced a TEAE ([6]; single dose): 1 of 40
- total TEAEs ([6]; single dose, postural dizziness, possibly related): 1
- safety and tolerability ([6]; single doses of 100, 300, 600 and 900 mg free base, multiple doses of 300 BID and 600 mg free base QD): generally safe and well tolerated
- estimated human brain levels of drug [7]: in a range found to engage target mechanisms and derive therapeutic benefit in mouse models
